From the NIST ThermoML archive (doi:10.1016/j.jct.2007.05.017)
Numbers after ± are expanded uncertainties.

Test: xn = mol fraction of the nth substance listed
Details: Liquid, Vibrating tube method

COC(=O)OC [dimethyl carbonate] + O=C=O
mass density [kg/m3]
Details	x2 = 0.2765	x2 = 0.4101	x2 = 0.4429	x2 = 0.5128	x2 = 0.5573	x2 = 0.6179	x2 = 0.6791	x2 = 0.6922	x2 = 0.7885	x2 = 0.7974
273 K	–	475.4 ± 40	–	448.2 ± 40	–	373.6 ± 40	–	331.4 ± 40	260.1 ± 40	–
283 K	659.5 ± 40	–	569.3 ± 40	–	465.6 ± 40	–	358.1 ± 40	–	–	311.1 ± 40
